Tested on: Monocotyledonous and dicotyledonous test plants
Assay: Post-emergence herbicidal action, greenhouse pot test, sprayed at the 2- to 3-leaf stage, 9-level rating after 2 to 3 weeks
Assay type: in vivo
Parameters: key: 9-level scale: 1 = complete damage, 9 = no effect
Conditions: 250 g/ha, rated after 2 to 3 weeks, 9-level scale
Experimental: Post-Emergence Herbicidal Action
Monocotyledonous and dicotyledonous test plants are grown in standard soil in pots. At the 2- to 3-leaf stage of the test plants, the test substances are sprayed at optimum dosage (500 l of water/ha) as an aqueous suspension (prepared from a wettable powder (example F3, b) according to WO 97/34485) or emulsion (prepared from an emulsion concentrate (example F1, c) according to WO 97/34485). The test plants are then grown further under optimum conditions in a greenhouse.
After a test period of 2 to 3 weeks, the test is evaluated using a 9-level scale of rating (1=complete damage, 9=no effect). Ratings of 1 to 4 (in particular 1 to 3) mean good to very good herbicidal action.

SMILES	Post-emergence action rating, Abutilon	Post-emergence action rating, Amaranth	Post-emergence action rating, Chenop.	Post-emergence action rating, Digitaria	Post-emergence action rating, Echino.	Post-emergence action rating, Ipopur.	Post-emergence action rating, Panicum	Post-emergence action rating, Xanth.
CSc1nnc(SCc2nc(C(F)(F)F)ccc2C(=O)C2=C(O)CCCC2=O)s1 [A829-B1]	7	2	2	9	7	6	7	4
O=C(C1=C(O)C2CCC(C2)C1=O)c1ccc(C(F)(F)F)nc1COCCOCc1ccccc1 (stereo not drawn) [A855-B52]	2	2	1	2	2	2	2	2
CN(Cc1nc(C(F)(F)F)ccc1C(=O)C1=C(O)C2CCC(C2)C1=O)S(C)(=O)=O (stereo not drawn) [A864-B52]	2	2	1	2	2	2	2	2
COc1ccccc1OCc1nc(C(F)(F)F)ccc1C(=O)C1=C(O)C2CCC(C2)C1=O (stereo not drawn) [A33-B52]	2	2	1	2	2	2	2	3
O=C(C1=C(O)C2CCC(C2)C1=O)c1ccc(C(F)(F)F)nc1COCc1cccs1 (stereo not drawn) [A854-B52]	2	1	1	2	2	2	1	2
CCCCCCCC(=O)OCCOCc1nc(C(F)(F)F)ccc1C(=O)C1=C(O)C2CCC(C2)C1=O (stereo not drawn) [A860-B52]	2	2	1	1	2	2	2	2
CS(=O)(=O)OCCOCc1nc(C(F)(F)F)ccc1C(=O)C1=C(O)C2CCC(C2)C1=O (stereo not drawn) [A862-B52]	3	2	1	2	3	5	2	2
C[S+]([O-])CCOCc1nc(C(F)(F)F)ccc1C(=O)C1=C(O)C2CCC(C2)C1=O (stereo not drawn) [A818-B52]	2	2	1	2	3	2	2	2
CC(=O)OCCOCc1nc(C(F)(F)F)ccc1C(=O)C1=C(O)C2CCC(C2)C1=O (stereo not drawn) [A861-B52]	3	2	1	3	5	2	2	2
O=C(C1=C(O)C2CCC(C2)C1=O)c1ccc(C(F)(F)F)nc1COCCCOCc1ccccc1 (stereo not drawn) [A863-B52]	2	2	1	2	3	3	2	2
O=C(C1=C(O)C2CCC(C2)C1=O)c1ccc(C(F)(F)F)nc1COCCO (stereo not drawn) [A856-B52]	2	2	1	2	2	1	2	2
CSCCOCc1nc(C(F)(F)F)ccc1C(=O)C1=C(O)C2CCC(C2)C1=O (stereo not drawn) [A817-B52]	2	2	1	2	2	2	1	2
CC(C)(C)C(=O)OC1=C(C(=O)c2ccc(C(F)(F)F)nc2COCCO)C(=O)C2CCC1C2 (stereo not drawn) [A856-B112]	2	3	1	3	5	3	3	3
CN(Cc1nc(C(F)(F)F)ccc1C(=O)c1cnn(C)c1O)S(C)(=O)=O [A864-C5]	2	1	1	2	2	2	1	2
CCOC(C)OCCOCc1nc(C(F)(F)F)ccc1C(=O)C1=C(O)C2CCC(C2)C1=O (stereo not drawn) [A859-B52]	2	2	1	2	2	2	1	2
CSc1nnc(SCc2nc(C(F)(F)F)ccc2C(=O)C2=C(O)C3CCC(C3)C2=O)s1 (stereo not drawn) [A829-B52]	3	2	2	6	4	4	2	6
O=C(C1=C(O)C2CCC(C2)C1=O)c1ccc(C(F)(F)F)nc1COCCOCOCc1ccccc1 (stereo not drawn) [A857-B52]	2	2	1	2	2	2	2	2
COCCOCCOCCOCc1nc(C(F)(F)F)ccc1C(=O)C1=C(O)C2CCC(C2)C1=O (stereo not drawn) [A858-B52]	2	1	2	2	2	2	2	2
